{"source": "ChEMBL document CHEMBL1154250", "about": "“Isolation and characterization of peptides from Momordica cochinchinensis seeds” (J Nat Prod, 2009)", "key": {"MM96L [1]": {"test_system": "MM96L", "assay": "Cytotoxicity against human MM96L cells assessed as survivality at 2 uM after 3 days by SRB assay", "type": "functional", "settings": "72 h, read-out: Survival"}, "[2]": {"assay": "Toxicity in human erythrocytes assessed as hemolytic activity up to 50 uM after 1 hr", "type": "cell-based", "settings": "erythrocyte"}, "[3]": {"assay": "Cytotoxicity against human NFF cells assessed as survivality at 2 uM after 3 days by SRB assay", "type": "cell-based", "settings": "read-out: Survival"}, "[4]": {"assay": "Cytotoxicity against human NFF cells assessed as survivality at 1.3 uM after 3 days by SRB assay", "type": "cell-based", "settings": "read-out: Survival"}, "MM96L [5]": {"test_system": "MM96L", "assay": "Cytotoxicity against human MM96L cells assessed as survivality at 1.3 uM after 3 days by SRB assay", "type": "functional", "settings": "72 h, read-out: Survival"}, "[6]": {"assay": "Inhibition of trypsin at 0.04 to 0.5 uM by UV-visible spectrophotometer"}, "Helicoverpa armigera": {"test_system": "Helicoverpa armigera", "assay": "Insecticidal activity against Helicoverpa armigera larvae assessed as decrease in weight at 0.825 umol after 96 hrs", "type": "functional, organism-based"}}, "note": "Calls of active or inactive are those of the source. No cut-off for these calls is given here. Positions of bridges follow the written chain, without caps; N, C: chain ends. Residues, ends and D or L forms follow the SMILES beside them.", "data": [{"molecule": "CC[C@H](C)[C@@H]1NC(=O)CNC(=O)[C@H](C(C)C)NC(=O)CNC(=O)[C@@H]2CCCN2C(=O)[C@H]([C@@H](C)O)NC(=O)[C@H](C(C)C)NC(=O)[C@H]([C@@H](C)O)NC(=O)[C@@H]2CCCN2C(=O)[C@H](Cc2c[nH]c3ccccc23)NC(=O)[C@@H]2CSSC[C@@H]3NC(=O)[C@H](CCC(N)=O)NC(=O)[C@H](CCCCN)NC(=O)CNC(=O)[C@H](CCC(=O)O)NC(=O)[C@@H](NC(=O)CN)CSSC[C@H](NC(=O)CNC(=O)CNC(=O)CNC(=O)[C@H](CSSC[C@@H](C(=O)N[C@@H](CO)C(=O)N[C@@H](CO)C(=O)N[C@@H](CO)C(=O)O)NC1=O)NC(=O)[C@H](CO)NC(=O)[C@H](CCCNC(=N)N)NC(=O)[C@H](Cc1ccccc1)NC(=O)[C@H](CC(C)C)NC(=O)CNC3=O)C(=O)N[C@@H](CCCNC(=N)N)C(=O)N2", "note": "[listing 1 of 2 here]", "values": [{"measurement": "viability at 2 µM", "setting": "MM96L [1]", "value": 57, "unit": "%"}]}, {"molecule": "CC[C@H](C)[C@@H]1NC(=O)CNC(=O)[C@H](C(C)C)NC(=O)CNC(=O)[C@@H]2CCCN2C(=O)[C@H]([C@@H](C)O)NC(=O)[C@H](C(C)C)NC(=O)[C@H]([C@@H](C)O)NC(=O)[C@@H]2CCCN2C(=O)[C@H](Cc2c[nH]c3ccccc23)NC(=O)[C@@H]2CSSC[C@@H]3NC(=O)[C@H](CCC(N)=O)NC(=O)[C@H](CCCCN)NC(=O)CNC(=O)[C@H](CCC(=O)O)NC(=O)[C@@H](NC(=O)CN)CSSC[C@H](NC(=O)CNC(=O)CNC(=O)CNC(=O)[C@H](CSSC[C@@H](C(=O)N[C@@H](CO)C(=O)N[C@@H](CO)C(=O)N[C@@H](CO)C(=O)O)NC1=O)NC(=O)[C@H](CO)NC(=O)[C@H](CCCNC(=N)N)NC(=O)[C@H](Cc1ccccc1)NC(=O)[C@H](CC(C)C)NC(=O)CNC3=O)C(=O)N[C@@H](CCCNC(=N)N)C(=O)N2", "note": "[listing 2 of 2 here]", "values": [{"measurement": "Activity", "setting": "[2]", "value": "Non-toxic"}, {"measurement": "viability at 72 h, 2 µM", "setting": "[3]", "value": 89, "unit": "%"}]}, {"molecule": "CC[C@H](C)[C@@H]1NC(=O)CNC(=O)[C@H](C(C)C)NC(=O)CNC(=O)[C@@H]2CCCN2C(=O)[C@H]([C@@H](C)O)NC(=O)[C@H](C(C)C)NC(=O)[C@H]([C@@H](C)O)NC(=O)[C@@H]2CCCN2C(=O)[C@H](Cc2c[nH]c3ccccc23)NC(=O)[C@@H]2CSSC[C@@H]3NC(=O)[C@@H]4CCCN4C(=O)[C@H](CCCCN)NC(=O)CNC(=O)[C@H](CCC(=O)O)NC(=O)[C@@H](NC(=O)CN)CSSC[C@H](NC(=O)CNC(=O)CNC(=O)CNC(=O)[C@H](CSSC[C@@H](C(=O)N[C@@H](CO)C(=O)N[C@@H](CO)C(=O)N[C@@H](CO)C(=O)O)NC1=O)NC(=O)[C@H](CO)NC(=O)[C@H](CCCNC(=N)N)NC(=O)[C@H](Cc1ccccc1)NC(=O)[C@H](CC(C)C)NC(=O)CNC3=O)C(=O)N[C@@H](CCCNC(=N)N)C(=O)N2", "note": "(H-GCEGKPCGLFRSCGGGCRCWPTVTPGVGICSSS-OH; disulfide 2-17, 7-19, 13-30)", "values": [{"measurement": "viability at 72 h, 1.3 µM", "setting": "[4]", "value": 86, "unit": "%"}, {"measurement": "viability at 1.3 µM", "setting": "MM96L [5]", "value": 51, "unit": "%"}]}, {"molecule": "CC[C@H](C)[C@@H]1NC(=O)CNC(=O)[C@H](C(C)C)NC(=O)CNC(=O)[C@@H]2CCCN2C(=O)[C@H]([C@@H](C)O)NC(=O)[C@H](C(C)C)NC(=O)[C@H]([C@@H](C)O)NC(=O)[C@@H]2CCCN2C(=O)[C@H](Cc2c[nH]c3ccccc23)NC(=O)[C@@H]2CSSC[C@@H]3NC(=O)[C@H](CCC(N)=O)NC(=O)[C@H](CCCCN)NC(=O)CNC(=O)[C@H](CCC(=O)O)NC(=O)[C@@H](NC(=O)CN)CSSC[C@H](NC(=O)CNC(=O)CNC(=O)CNC(=O)[C@H](CSSC[C@H](C(=O)N[C@@H](CO)C(=O)N[C@@H](CO)C(=O)N[C@@H](CO)C(=O)O)NC1=O)NC(=O)[C@H](CO)NC(=O)[C@H](CCCNC(=N)N)NC(=O)[C@H](Cc1ccccc1)NC(=O)[C@H](CC(C)C)NC(=O)CNC3=O)C(=O)N[C@@H](CCCNC(=N)N)C(=O)N2", "values": [{"measurement": "inhibition", "setting": "[6]", "value": "inactive"}, {"measurement": "Activity", "setting": "Helicoverpa armigera", "value": "inactive"}]}]}
